# Laboratory results published in DBAASP.
# What was measured:
# Experiment in all cases: ≥ marks a high value that may be exact or a test limit, other limits are often not marked, values filed in µg/mL are converted to µM
# [1] = system: Pseudomonas aeruginosa Ps4
# Escherichia coli = system: Escherichia coli
# Listeria innocua = system: Listeria innocua
# Micrococcus luteus = system: Micrococcus luteus
# [2] = system: Salmonella enterica subsp. enterica serovar Enteritidis
# Micrococcus luteus A270 = system: Micrococcus luteus A270
# Bacillus subtilis = system: Bacillus subtilis
# Candida albicans = system: Candida albicans
# [3] = system: Escherichia coli ATCC 25922
# [4] = system: Staphylococcus aureus ATCC 29213
# Staphylococcus aureus = system: Staphylococcus aureus
SMILES,MIC [1] [µM],MIC (Escherichia coli) [µM],MIC [2] [µM],other results
CC(C)C[C@H](NC(=O)[C@H](C)NC(=O)[C@H](CC(N)=O)NC(=O)[C@H](C)NC(=O)[C@@H](NC(=O)CNC(=O)[C@H](C)NC(=O)[C@@H](NC(=O)[C@@H](NC(=O)[C@H](CCCCN)NC(=O)[C@H](CCC(N)=O)NC(=O)[C@H](Cc1ccccc1)NC(=O)[C@H](CC(=O)O)NC(=O)[C@H](C)NC(=O)[C@H](CCC(N)=O)NC(=O)[C@H](CC(C)C)NC(=O)[C@@H](NC(=O)[C@@H]1CCCN1C(=O)[C@@H](NC(=O)[C@H](Cc1ccccc1)NC(=O)[C@@H](N)Cc1ccccc1)[C@@H](C)O)C(C)C)C(C)C)C(C)C)C(C)C)C(=O)N[C@@H](C)C(=O)N[C@@H](Cc1cnc[nH]1)C(=O)N[C@@H](CCCN=C(N)N)C(=O)N[C@@H](Cc1ccc(O)cc1)C(=O)N[C@@H](Cc1cnc[nH]1)C(=O)O [FFTPVLQADFQKVVAGVANALAHRYH],,73,≥ 73,MIC (Listeria innocua): ≥ 73 µM; MIC (Micrococcus luteus): ≥ 85 µM
CC[C@H](C)[C@H](NC(=O)[C@@H](N)Cc1ccccc1)C(=O)N[C@@H](Cc1c[nH]c2ccccc12)C(=O)N[C@@H](CCCN=C(N)N)C(=O)N[C@@H](Cc1c[nH]c2ccccc12)C(=O)N[C@@H](CCCN=C(N)N)C(=O)N[C@@H](Cc1c[nH]c2ccccc12)C(=O)N[C@@H](CCCN=C(N)N)C(N)=O [FIWRWRWR],≥ 47.9,,,
CC(C)C[C@H](NC(=O)[C@@H](N)Cc1ccccc1)C(=O)N[C@@H](CO)C(=O)N[C@@H](Cc1ccccc1)C(=O)N1CCC[C@H]1C(=O)N[C@H](C(=O)N[C@H](C(=O)N[C@@H](CCCCN)C(=O)N[C@H](C(=O)N[C@@H](Cc1ccc(O)cc1)C(=O)N[C@@H](Cc1ccccc1)C(=O)N1CCC[C@H]1C(=O)N[C@@H](Cc1cnc[nH]1)C(=O)O)[C@@H](C)O)[C@@H](C)O)[C@@H](C)O [FLSFPTTKTYFPH],,9,5,MIC (Listeria innocua): 1 µM; MIC (Micrococcus luteus A270): 5 µM
CC(C)C[C@@H]1NC(=O)CNC(=O)[C@H](CO)NC(=O)[C@H](CC(C)C)NC(=O)CNC(=O)[C@@H](NC(=O)[C@H](CC(C)C)NC(=O)[C@@H](NC(=O)[C@H](CCCCN)NC(=O)[C@H](CCCCN)NC(=O)CNC(=O)[C@@H](NC(=O)CNC(=O)[C@H](CC(C)C)NC(=O)[C@@H](NC(=O)CNC(=O)[C@H](CO)NC(=O)[C@H](CC(C)C)NC(=O)[C@H](CC(C)C)NC(=O)CN)C(C)C)C(C)C)C(C)C)CSSC[C@@H](C(=O)O)NC1=O [GLLSGVLGVGKKVLCGLSGLC],,2.37,≥ 64.9,MIC (Bacillus subtilis): 9.5 µM; MIC (Candida albicans): 2.37 µM; MIC [3]: 5.73 µM; MIC [4]: 11.5 µM; MIC (Staphylococcus aureus): 4.75 µM

# Further lines, with some results ahead:
MIC [1] [µM],MIC (Escherichia coli) [µM],MIC [2] [µM],SMILES,other results
≥ 170,,,CC[C@H](C)[C@H](NC(=O)[C@H](CC(N)=O)NC(=O)[C@H](CCCN=C(N)N)NC(=O)[C@H](CCC(N)=O)NC(=O)[C@H](Cc1c[nH]c2ccccc12)NC(=O)[C@H](C)NC(=O)[C@@H](N)Cc1ccccc1)C(=O)N[C@@H](CCCN=C(N)N)C(=O)N[C@@H](CCCCN)C(=O)N[C@H](C(=O)N[C@@H](CCCN=C(N)N)C(N)=O)C(C)C [FAWQRNIRKVR],
≥ 166,,,CC[C@H](C)[C@H](NC(=O)[C@H](CC(N)=O)NC(=O)[C@H](CCCN=C(N)N)NC(=O)[C@H](CCC(N)=O)NC(=O)[C@H](Cc1c[nH]c2ccccc12)NC(=O)[C@@H](N)Cc1ccccc1)C(=O)N[C@@H](CCCN=C(N)N)C(=O)N[C@@H](CCCCN)C(=O)N[C@H](C(=O)N[C@@H](CCCCN)C(=O)N[C@@H](CCCCN)C(N)=O)C(C)C [FWQRNIRKVKK],
≥ 168,,,CC[C@H](C)[C@H](NC(=O)[C@H](CCCN=C(N)N)NC(=O)[C@@H](NC(=O)[C@H](CCCN=C(N)N)NC(=O)[C@H](CCCN=C(N)N)NC(=O)[C@H](CCC(N)=O)NC(=O)[C@H](Cc1c[nH]c2ccccc12)NC(=O)[C@@H](N)Cc1ccccc1)[C@@H](C)CC)C(=O)N[C@@H](CCCN=C(N)N)C(=O)N[C@@H](CCCN=C(N)N)C(N)=O [FWQRRIRIRR],
≥ 108,,,NC(=O)[C@H](CCCN=C(N)N)NC(=O)[C@H](CCCN=C(N)N)NC(=O)[C@H](Cc1c[nH]c2ccccc12)NC(=O)[C@H](CCCN=C(N)N)NC(=O)[C@H](CCCN=C(N)N)NC(=O)[C@H](Cc1c[nH]c2ccccc12)NC(=O)[C@@H](N)Cc1ccccc1 [FWRRWRR],
